Test [1] has as its system Mycobacterium tuberculosis. As to the kind of experiment: Inhibition of N-terminal hexahistidine-tagged recombinant Mycobacterium tuberculosis PtpB expressed in Escherichia coli BL21(DE3) using p-nitrophenylphosphate as substrate at 25 uM measured for 10 mins by ELISA plate spectrophotometric analysis relative to control.
A short description of test [2]: Competitive inhibition of N-terminal hexahistidine-tagged recombinant Mycobacterium tuberculosis PtpB expressed in Escherichia coli BL21(DE3) using p-nitrophenylphosphate as substrate measured for 10 mins by Lineweaver-Burk plot analysis.
The target of test [3] is T1, Tyrosine-protein phosphatase non-receptor type 1 (Homo sapiens, UniProt P18031).
T1 sequence (P18031 whole entry): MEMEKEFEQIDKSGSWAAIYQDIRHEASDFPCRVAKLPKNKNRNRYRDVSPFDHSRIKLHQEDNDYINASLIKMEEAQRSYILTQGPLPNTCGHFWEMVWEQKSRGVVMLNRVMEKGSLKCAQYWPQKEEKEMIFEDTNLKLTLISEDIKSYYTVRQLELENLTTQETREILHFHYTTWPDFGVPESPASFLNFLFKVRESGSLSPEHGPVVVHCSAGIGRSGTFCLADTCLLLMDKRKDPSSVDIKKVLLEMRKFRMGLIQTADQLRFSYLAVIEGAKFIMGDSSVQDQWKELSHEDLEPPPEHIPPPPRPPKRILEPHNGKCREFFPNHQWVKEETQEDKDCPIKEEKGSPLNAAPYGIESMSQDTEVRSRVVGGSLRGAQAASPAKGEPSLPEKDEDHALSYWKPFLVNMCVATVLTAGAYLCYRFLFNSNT
The test is described as follows: Inhibition of PTP1B (unknown origin) using p-nitrophenylphosphate as substrate measured for 10 mins by ELISA plate spectrophotometric analysis.

The nature of test [4]: Inhibition of N-terminal hexahistidine-tagged recombinant Mycobacterium tuberculosis PtpB expressed in Escherichia coli BL21(DE3) using p-nitrophenylphosphate as substrate measured for 10 mins by ELISA plate spectrophotometric analysis.

The source made the active and inactive calls. The calls are words filed in the database; no cut-off is given here.

The inhibition is the percentage by which the read-out fell short of the control. As to `O=C1C=CC(=O)N1c1ccc(S(=O)(=O)Cl)cc1`, the inhibition in test [1] came to 14%.
The same measure, in the same setting: the value for `CC12C=CC(O1)C1C(=O)N(c3ccc(S(=O)(=O)N4CCOCC4)cc3)C(=O)C12` (stereo not drawn) was “inactive”; that for `O=C1C=CC(=O)N1c1ccccc1` was 27%; that for `Cc1ccc(/C=N/NS(=O)(=O)c2ccc(N3C(=O)C4C5C=CC(C)(O5)C4C3=O)cc2)cc1` (stereo not drawn) was 26%.
Still for that read-out and setting: then `O=C1C2C3C=CC(O3)C2C(=O)N1c1ccc(S(=O)(=O)N2CCCC2)cc1` (stereo not drawn), with “inactive”.
On the same count and under the same terms, the value for `CC12C=CC(O1)C1C(=O)N(c3ccc(S(=O)(=O)N/N=C/c4ccc([N+](=O)[O-])cc4)cc3)C(=O)C12` (stereo not drawn) was 32%; that for `O=C1c2cccc3c(Cl)ccc(c23)C(=O)N1Cc1ccc(S(=O)(=O)N2CCOCC2)cc1` was “inactive”; that for `COc1ccc(/C=N/NS(=O)(=O)c2ccc(N3C(=O)C4C5C=CC(C)(O5)C4C3=O)cc2)cc1` (stereo not drawn) was “inactive”.
As for `CC12C=CC(O1)C1C(=O)N(c3ccc(S(=O)(=O)N/N=C/c4ccc(Cl)c(Cl)c4)cc3)C(=O)C12` (stereo not drawn), the inhibition in test [1] was 34%.
As for `O=C1c2cccc3cccc(c23)C(=O)N1Cc1ccc(S(=O)(=O)N2CCOCC2)cc1`, the inhibition result in test [1] is “inactive”.
For orientation: Ki means a dissociation constant, usually derived from enzyme kinetics or from competition with a known ligand. The term IC50 denotes the midpoint of a concentration-inhibition curve. Take `CC12C=CC(O1)C1C(=O)N(c3ccc(S(=O)(=O)N/N=C/c4ccccc4)cc3)C(=O)C12` (stereo not drawn): in test [2], the Ki came to 7 µM. For the same molecule, the inhibition in test [1] was 59%. For the same molecule, the IC50 in test [3] was found to be 7 µM; in test [4] it was 18 µM.
Regarding `CC12C=CC(O1)C1C(=O)N(c3ccc(S(=O)(=O)N/N=C/c4ccc(Cl)cc4)cc3)C(=O)C12` (stereo not drawn), in test [2], the Ki was determined as 2.5 µM. Also, the inhibition in test [1] worked out at 59%. In addition, the half-inhibitory concentration (IC50) in test [3] was found to be 41 µM; in test [4], 21 µM.
As for `O=C1c2cccc3cccc(c23)C(=O)N1Cc1ccc(S(=O)(=O)N2CCCC2)cc1`, in test [1], the inhibition entry was “inactive”.
For `CC12C=CC(O1)[C@@H]1C(=O)N(c3ccc(S(=O)(=O)N/N=C/c4ccc(Br)cc4)cc3)C(=O)[C@@H]12` (stereo partly drawn), the Ki in test [2] worked out at 9 µM. Moreover, the inhibition in test [1] was determined as 59%. The IC50 amounted to 88 µM in test [3] and 39 µM in test [4].
The matching figures for `O=C1C2C3C=CC(O3)C2C(=O)N1c1ccc(S(=O)(=O)N/N=C/c2ccc([N+](=O)[O-])cc2)cc1` (stereo not drawn): 15 µM, 57%, 245 µM and 41 µM.
Consider `CC12C=CC(O1)C1C(=O)N(c3ccc(S(=O)(=O)N4CCCC4)cc3)C(=O)C12` (stereo not drawn), for which the inhibition entry in test [1] is “inactive”.
